# Patent US10082509B2 (priority 2013, dated 2018)
# “Also recorded” adds a separate entry of the source. Read-outs that look alike come from different tables or passages of the source.
# Assays:
# [1] = test system: L. gormanii, L. maceachernii, L. micdadei, L. anisa, L. feeli, L. jordanis, L. tucsonensis and L. bozemanii; type: cell-based, Legionella spp.
# Legionella pneumophila = type: cell-based; settings: for membrane labelling: FIG. 4; for labelling / metabolic incorporation: L. pneumophila strains, laboratory in vitro conditions, FIG. 7
# [2] = test system: P. aeruginosa (ATCC 9027); type: cell-based, Pseudomonas aeruginosa
# E. coli K12 (MG1655) = type: cell-based, Escherichia coli
Structure (SMILES),membrane fluorescence / metabolic incorporation [1],membrane labelling (Legionella pneumophila; L. pneumophila strain of serogroup 7),labelling / metabolic incorporation (Legionella pneumophila),"membrane fluorescence / metabolic incorporation of the azido chemical reporter into LPS (Legionella pneumophila; four L. pneumophila serogroup 1 strains (incl. Philadelphia, Paris, Lens), 4 mM, 12 hours, 37° C., FIG. 3)","membrane labelling (Legionella pneumophila; four L. pneumophila strains of serogroups 3, 4, 5, 6)",labelling / metabolic incorporation [2],labelling / metabolic incorporation (E. coli K12 (MG1655))
CC(=O)N[C@H]1[C@H](O)[C@H](NC(C)=O)C(O)O[C@@H]1CN=[N+]=[N-] (some centres unmarked),not incorporated; also recorded: no membrane fluorescence was observed,absence of labelling,efficiently labelled,highly distinctive fluorescence on their membrane,very bright membrane labelling,not incorporated; also recorded: failed to show any labelling,not incorporated; also recorded: failed to show any labelling
CC(=O)NC1C(O)OC(CN=[N+]=[N-])[C@@H](NC(C)=O)[C@@H]1OC(C)=O (some centres unmarked),,,not incorporated; also recorded: No labelling was observed,,,,
